A word on the IC50: it is the concentration needed to halve the response being measured. Higher therefore signals lower potency.

In the assay the target is Human eIF4E (Homo sapiens (Human), UniProt P06730). The assay is described as follows: Human eIF4E/4G binding assay (time-resolved fluorescence, HH-eIF4E and biotin-labeled 4G2 peptide). To be noted: inhibition of binding of His-tagged human eIF4E (aa 28-217) to biotin-labeled 4G2 peptide. How it is done:
The protein was solubilized with 8 M urea and purified under denaturing conditions using nickel-charged HisTrap HP columns (GE Healthcare). The protein was refolded by diluting to approximately 0.25 mg/mL with 6 M urea, 20 mM Hepes pH 7.0, 500 mM NaCl, 1 mM DTT, 1 mM EDTA, and 0.5 M arginine.HCl, and then dialyzing overnight into the same buffer without the urea. The protein was further dialyzed into 20 mM Hepes pH 6.5, 50 mM NaCl, 1 mM EDTA, and 1 mM DTT, filtered, and then concentrated using Hitrap SP sepharose FF columns (GE Healthcare). The protein was dialyzed into 20 mM Hepes pH 7.0, 500 mM NaCl, 5 mM DTT, and 10% glycerol and stored at −80° C. until use. Test compounds (1.6 mM stock in DMSO) were diluted 3 fold in series in DMSO. Compound solutions were diluted 4 fold in Assay Buffer (50 mM sodium phosphate, pH 6.5, 50 mM KCl, 1 mM DTT and 0.5 mg/mL gammaglobulin). […] The samples were incubated at room temperature for 20 minutes. […] IC50 values were calculated using Condoseo software (Genedata AG).

Human eIF4E, sequence (P06730 28-217): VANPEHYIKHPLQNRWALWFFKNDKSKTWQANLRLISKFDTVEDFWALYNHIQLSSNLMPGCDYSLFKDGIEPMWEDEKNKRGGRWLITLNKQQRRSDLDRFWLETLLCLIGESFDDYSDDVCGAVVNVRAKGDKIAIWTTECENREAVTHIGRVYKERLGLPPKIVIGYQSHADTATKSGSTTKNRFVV

On to `O=C(O)c1cc(-c2nc(-c3cccnc3)cs2)ccc1-c1ccccc1[N+](=O)[O-]` [Example 38, 2′-Nitro-4-(4-pyridin-3-yl-thiazol-2-yl)-biphenyl-2-carboxylic acid], for which the IC50 was over 80 µM.
`O=C(O)c1cc(-c2nc(-c3ccc(Cl)cc3)cs2)ccc1-c1ccccc1[N+](=O)[O-]` [Example 13, 4-[4-(4-Chloro-phenyl)-thiazol-2-yl]-2′-nitro-biphenyl-2-carboxylic acid] gave an IC50 of 5.2 µM.
To `COc1ccc(Cl)c(-c2ccc(-c3nc(-c4ccc(Cl)c(Cl)c4)cs3)cc2C(=O)O)c1` [Example 93, 2′-Chloro-4-[4-(3,4-dichloro-phenyl)-thiazol-2-yl]-5′-methoxy-biphenyl-2-carboxylic acid] belongs 3 µM; to `O=C(O)c1cc(-c2nc(-c3ccc(Cl)c(Cl)c3)cs2)ccc1-c1ccc(Cl)cc1Cl` [Example 150, 2′,4′-Dichloro-4-[4-(3,4-dichloro-phenyl)-thiazol-2-yl]-biphenyl-2-carboxylic acid], 1.4 µM.
`COc1ccc(-c2ccc(-c3nc(-c4ccc(Cl)c(Cl)c4)cs3)cc2C(=O)O)c(C(F)(F)F)c1` [Example 87, 4-[4-(3,4-Dichloro-phenyl)-thiazol-2-yl]-4′-methoxy-2′-trifluoromethyl-biphenyl-2-carboxylic acid] returned an IC50 of 1.3 µM.
To `O=C(O)c1cc(-c2nc(-c3ccc(Cl)c(Cl)c3)cs2)ccc1-c1ccccc1F` [Example 137, 4-[4-(3,4-Dichloro-phenyl)-thiazol-2-yl]-2′-fluoro-biphenyl-2-carboxylic acid] belongs 3.6 µM; to `O=C(O)c1cc(-c2nc(-c3ccc(C(F)(F)F)cc3)cs2)ccc1-c1ccccc1[N+](=O)[O-]` [Example 7, 2′-Nitro-4-[4-(4-trifluoromethyl-phenyl)-thiazol-2-yl]-biphenyl-2-carboxylic acid], 2.4 µM; to `Cc1cc(-c2csc(-c3ccc(-c4ccccc4[N+](=O)[O-])c(C(=O)O)c3)n2)ccc1Cl` [Example 9, 4-[4-(4-Chloro-3-methyl-phenyl)-thiazol-2-yl]-2′-nitro-biphenyl-2-carboxylic acid], 5.9 µM.
`CC(=O)c1sccc1-c1ccc(-c2nc(-c3ccc(Cl)c(Cl)c3)cs2)cc1C(=O)O` [Example 119, 2-(2-Acetyl-thiophen-3-yl)-5-[4-(3,4-dichloro-phenyl)-thiazol-2-yl]-benzoic acid] registered an IC50 of 9.6 µM.
Turning to `Cc1ccc(-c2csc(-c3ccc(-c4ccccc4[N+](=O)[O-])c(C(=O)O)c3)n2)c(C)c1` [Example 40, 4-[4-(2,4-Dimethyl-phenyl)-thiazol-2-yl]-2′-nitro-biphenyl-2-carboxylic acid], the IC50 was 4.2 µM. This IC50 lies about 2.3-fold lower than the previous one.
As for `O=C(O)c1cc(-c2nc(-c3ccc(Cl)c(Cl)c3)cs2)ccc1-c1cc(OC(F)(F)F)ccc1Cl` [Example 88, 2′-Chloro-4-[4-(3,4-dichloro-phenyl)-thiazol-2-yl]-5′-trifluoromethoxy-biphenyl-2-carboxylic acid], the figure is 0.6 µM; as for `N#Cc1cc(-c2ccc(-c3nc(-c4ccc(Cl)c(Cl)c4)cs3)cc2C(=O)O)ccc1Cl` [Example 115, 4′-Chloro-3′-cyano-4-[4-(3,4-dichloro-phenyl)-thiazol-2-yl]-biphenyl-2-carboxylic acid], 1.9 µM.
As for `O=C(O)c1cc(-c2nc(-c3ccc(Cl)c(Cl)c3)cs2)ccc1-c1cc(Cl)cc(Cl)c1Cl` [Example 149, 2′,3′,5′-Trichloro-4-[4-(3,4-dichloro-phenyl)-thiazol-2-yl]-biphenyl-2-carboxylic acid], the figure is over 80 µM; as for `O=C(NCCc1ccccc1)c1ccc(-c2ccc(-c3nc(-c4ccc(Cl)c(Cl)c4)cs3)cc2C(=O)O)cc1` [Example 67, 4-[4-(3,4-Dichloro-phenyl)-thiazol-2-yl]-4′-phenethylcarbamoyl-biphenyl-2-carboxylic acid], 2.9 µM.
In turn, `O=C(O)c1cc(-c2nc(-c3ccccc3C(F)(F)F)cs2)ccc1-c1ccccc1[N+](=O)[O-]` [Example 5, 2′-Nitro-4-[4-(2-trifluoromethyl-phenyl)-thiazol-2-yl]-biphenyl-2-carboxylic acid] showed an IC50 of 23 µM.
As for `O=C(O)c1cc(-c2nc(-c3cc(Cl)ccc3Cl)cs2)ccc1-c1ccccc1[N+](=O)[O-]` [Example 12, 4-[4-(2,5-Dichloro-phenyl)-thiazol-2-yl]-2′-nitro-biphenyl-2-carboxylic acid], the figure is 2.9 µM; as for `O=C(NCC1CCCO1)c1ccc(-c2ccc(-c3nc(-c4ccc(Cl)c(Cl)c4)cs3)cc2C(=O)O)cc1` (stereo not drawn) [Example 61, 4-[4-(3,4-Dichloro-phenyl)-thiazol-2-yl]-4′-[(tetrahydro-furan-2-ylmethyl)-carbamoyl]-biphenyl-2-carboxylic acid], 5.5 µM; as for `O=C(O)c1cc(-c2nc(-c3ccc(Cl)c(Cl)c3)cs2)ccc1-c1cnc(O)nc1` [Example 84, 5-[4-(3,4-Dichloro-phenyl)-thiazol-2-yl]-2-(2-hydroxy-pyrimidin-5-yl)-benzoic acid], 1.2 µM.
To `Cc1ccccc1-c1ccc(-c2nc(-c3ccc(Cl)c(Cl)c3)cs2)cc1C(=O)O` [Example 141, 4-[4-(3,4-Dichloro-phenyl)-thiazol-2-yl]-2′-methyl-biphenyl-2-carboxylic acid] belongs 5.9 µM.
The compound `O=C(O)c1cc(-c2nc(-c3ccc(Cl)c(Cl)c3)cs2)ccc1-c1ccc(Cl)cc1` [Example 147, 4′-Chloro-4-[4-(3,4-dichloro-phenyl)-thiazol-2-yl]-biphenyl-2-carboxylic acid] displayed an IC50 of 1.7 µM.
As for `N#Cc1ccc(-c2ccc(-c3nc(-c4ccc(Cl)c(Cl)c4)cs3)cc2C(=O)O)cc1` [Example 106, 4′-Cyano-4-[4-(3,4-dichloro-phenyl)-thiazol-2-yl]-biphenyl-2-carboxylic acid], the figure is 7.6 µM.
As for `O=C(O)c1cc(-c2nc(-c3ccc(Cl)c(Cl)c3)cs2)ccc1-c1cc(Cl)ccc1Cl` [Example 148, 2′,5′-Dichloro-4-[4-(3,4-dichloro-phenyl)-thiazol-2-yl]-biphenyl-2-carboxylic acid], the figure is 1.7 µM; as for `O=C(O)c1cc(-c2nc(-c3c(F)cccc3F)cs2)ccc1-c1ccccc1[N+](=O)[O-]` [Example 20, 4-[4-(2,6-Difluoro-phenyl)-thiazol-2-yl]-2′-nitro-biphenyl-2-carboxylic acid], over 80 µM.
Compound `O=C(O)c1cc(-c2nc(-c3ccc(Cl)c(Cl)c3)cs2)ccc1-c1cccc([N+](=O)[O-])c1` [Example 46, 4-[4-(3,4-Dichloro-phenyl)-thiazol-2-yl]-3′-nitro-biphenyl-2-carboxylic acid] displayed an IC50 of 3.8 µM.
As for `O=C(O)c1cc(-c2nc(-c3ccc(F)c(Cl)c3)cs2)ccc1-c1ccccc1[N+](=O)[O-]` [Example 18, 4-[4-(3-Chloro-4-fluoro-phenyl)-thiazol-2-yl]-2′-nitro-biphenyl-2-carboxylic acid], the figure is 5 µM; as for `O=C(O)c1cc(-c2nc(-c3ccc(Cl)c(Cl)c3)cs2)ccc1-c1ccc(C(F)(F)F)cc1Cl` [Example 127, 2′-Chloro-4-[4-(3,4-dichloro-phenyl)-thiazol-2-yl]-4′-trifluoromethyl-biphenyl-2-carboxylic acid], 1.6 µM.
Regarding `O=C(O)c1cc(-c2nc(-c3ccc(Cl)c(Cl)c3)cs2)ccc1-c1cc(O)ccc1Cl` [Example 95, 2′-Chloro-4-[4-(3,4-dichloro-phenyl)-thiazol-2-yl]-5′-hydroxy-biphenyl-2-carboxylic acid], the IC50 worked out at 3.4 µM.
To `Cc1cc(C(=O)O)ccc1-c1ccc(-c2nc(-c3ccc(Cl)c(Cl)c3)cs2)cc1C(=O)O` [Example 79, 4-[4-(3,4-Dichloro-phenyl)-thiazol-2-yl]-2′-methyl-biphenyl-2,4′-dicarboxylic acid] belongs 5.4 µM; to `COc1ccc(CNC(=O)c2ccc(-c3ccc(-c4nc(-c5ccc(Cl)c(Cl)c5)cs4)cc3C(=O)O)cc2)cc1` [Example 64, 4-[4-(3,4-Dichloro-phenyl)-thiazol-2-yl]-4′-(4-methoxy-benzylcarbamoyl)-biphenyl-2-carboxylic acid], 2 µM.
To `CCN(CC)CCCNC(=O)c1ccc(-c2ccc(-c3nc(-c4ccc(Cl)c(Cl)c4)cs3)cc2C(=O)O)cc1` [Example 47, 4-[4-(3,4-Dichloro-phenyl)-thiazol-2-yl]-4′-(3-diethylamino-propylcarbamoyl)-biphenyl-2-carboxylic acid] belongs over 80 µM; to `O=C(O)c1cc(-c2nc(-c3cccc(C(F)(F)F)c3)cs2)ccc1-c1ccccc1[N+](=O)[O-]` [Example 6, 2′-Nitro-4-[4-(3-trifluoromethyl-phenyl)-thiazol-2-yl]-biphenyl-2-carboxylic acid], 8.3 µM.
To `O=C(O)c1cc(-c2nc(-c3ccc(Cl)c(Cl)c3)cs2)ccc1-c1cccc(F)c1F` [Example 138, 4-[4-(3,4-Dichloro-phenyl)-thiazol-2-yl]-2′,3′-difluoro-biphenyl-2-carboxylic acid] belongs 1.9 µM.
Turning to `CCOc1ncc(-c2ccc(-c3nc(-c4ccc(Cl)c(Cl)c4)cs3)cc2C(=O)O)cn1` [Example 82, 5-[4-(3,4-Dichloro-phenyl)-thiazol-2-yl]-2-(2-ethoxy-pyrimidin-5-yl)-benzoic acid], the IC50 came to 3.6 µM. This IC50 lies about 1.9-fold higher than the previous one.

The values above are taken from patent US9073881B2, “Benzoic acid derivatives” (HOFFMANN-LA ROCHE INC., priority 2011, dated 2015).
